The supplement of paper PMC9013687
± gives the standard deviation of the averaged measurements.

Tests used:
Danio rerio embryo [1] = details: exposure time: 4 dpf
Protocol: (§1)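 Zebrafish embryos (UFZ-OBI strain) were exposed from 2 hpf for 48 h (2 dpf) or 96 h (4 dpf) at 28 °C; spontaneous tail coiling was scored at 25 hpf. Morphological features from automated image analysis (FishInspector), heart rate and locomotor response were fitted with drc models. Quantal endpoints were dichotomised at 2.5 SD from controls and fitted with a log-logistic model; heart rate, pigmentation and STC were normalised to the replicate control mean. Betamethasone was tested as betamethasone dipropionate, diflorasone as diflorasone diacetate.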

Danio rerio embryo [2] = tested on: Danio rerio embryo
Protocol: as §1

Danio rerio embryo [3] = details: exposure time: 4 dpf; remark: listed apart in the source
Protocol: as §1

Danio rerio embryo [4] = details: exposure time: 4 dpf; remark: listed apart in the source
Protocol: as §1

Danio rerio embryo [5] = assay: EC50 Eye size_Decrease
Protocol: as §1

Danio rerio embryo [6] = assay: EC50 Curvature_Increase
Protocol: as §1

Danio rerio embryo [7] = assay: EC50 Body length_Decrease
Protocol: as §1

Danio rerio embryo [8] = assay: EC50 Bladder size_Decrease; details: exposure time: 4 dpf
Protocol: as §1

Danio rerio embryo [9] = assay: EC50 Pericard size_Increase
Protocol: as §1

Danio rerio embryo [10] = assay: EC50 Yolk sac size_Increase
Protocol: as §1

Danio rerio embryo [11] = assay: EC50 Eye-jaw distance_Decrease; details: exposure time: 4 dpf
Protocol: as §1

Danio rerio embryo [12] = assay: EC50 Otolith-eye distance_Decrease; details: exposure time: 4 dpf
Protocol: as §1

Danio rerio embryo [13] = assay: EC10 LMR dark; higher = less potent; details: exposure time: 4 dpf
Protocol: as §1

Danio rerio embryo [14] = assay: EC20 LMR dark; higher = less potent; details: exposure time: 4 dpf
Protocol: as §1

Danio rerio embryo [15] = assay: EC10 Heart rate; higher = less potent; details: exposure time: 4 dpf
Protocol: as §1

Danio rerio embryo [16] = assay: EC10 Lack of SB; higher = less potent; details: exposure time: 4 dpf
Protocol: as §1

Danio rerio embryo [17] = assay: EC20 Lack of SB; higher = less potent; details: exposure time: 4 dpf
Protocol: as §1

Danio rerio embryo [18] = assay: EC20 Any effect; higher = less potent
Protocol: as §1

Danio rerio embryo [19] = assay: EC10 Any effect; higher = less potent
Protocol: as §1

Danio rerio embryo [20] = assay: EC20 Heart rate; higher = less potent; details: exposure time: 4 dpf
Protocol: as §1

Danio rerio embryo [21] = assay: EC20 Eye size_Decrease; higher = less potent
Protocol: as §1

Danio rerio embryo [22] = assay: EC10 Eye size_Decrease; higher = less potent
Protocol: as §1

Danio rerio embryo [23] = assay: EC10 Curvature_Increase; higher = less potent
Protocol: as §1

Danio rerio embryo [24] = assay: EC20 Curvature_Increase; higher = less potent
Protocol: as §1

Danio rerio embryo [25] = assay: EC20 Body length_Decrease; higher = less potent
Protocol: as §1

Danio rerio embryo [26] = assay: EC10 Body length_Decrease; higher = less potent
Protocol: as §1

Danio rerio embryo [27] = assay: EC10 Bladder size_Decrease; higher = less potent; details: exposure time: 4 dpf
Protocol: as §1

Danio rerio embryo [28] = assay: EC20 Bladder size_Decrease; higher = less potent; details: exposure time: 4 dpf
Protocol: as §1

Danio rerio embryo [29] = assay: EC20 Yolk sac size_Increase; higher = less potent
Protocol: as §1

Danio rerio embryo [30] = assay: EC20 Pericard size_Increase; higher = less potent
Protocol: as §1

Danio rerio embryo [31] = assay: EC10 Yolk sac size_Increase; higher = less potent
Protocol: as §1

Danio rerio embryo [32] = assay: EC10 Pericard size_Increase; higher = less potent
Protocol: as §1

Danio rerio embryo [33] = assay: EC20 Eye-jaw distance_Decrease; higher = less potent; details: exposure time: 4 dpf
Protocol: as §1

Danio rerio embryo [34] = assay: EC10 Eye-jaw distance_Decrease; higher = less potent; details: exposure time: 4 dpf
Protocol: as §1

Danio rerio embryo [35] = assay: EC20 Otolith-eye distance_Decrease; higher = less potent; details: exposure time: 4 dpf
Protocol: as §1

Danio rerio embryo [36] = assay: EC10 Otolith-eye distance_Decrease; higher = less potent; details: exposure time: 4 dpf
Protocol: as §1

Danio rerio embryo [37] = assay: spontaneous tail coiling frequency (coils/min/embryo); higher = more spontaneous movement; details: 25 hpf
Protocol: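 Spontaneous tail coilings of zebrafish embryos exposed from 2 hpf were recorded at 24-25 hpf in 1-min videos and detected by a KNIME workflow from grey-value variance. Betamethasone was tested as the dipropionate, diflorasone as the diacetate.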

Danio rerio embryo [38] = details: exposure time: 2 dpf
Protocol: as §1

Danio rerio embryo [39] = assay: EC50 Head size_Decrease; details: exposure time: 2 dpf
Protocol: as §1

Danio rerio embryo [40] = assay: EC50 Head trunk angle_Decrease; details: exposure time: 2 dpf
Protocol: as §1

Danio rerio embryo [41] = assay: EC20 Head size_Decrease; higher = less potent; details: exposure time: 2 dpf
Protocol: as §1

Danio rerio embryo [42] = assay: EC10 Head size_Decrease; higher = less potent; details: exposure time: 2 dpf
Protocol: as §1

Danio rerio embryo [43] = assay: EC10 Pigmentation decrease; higher = less potent; details: exposure time: 2 dpf
Protocol: as §1

Danio rerio embryo [44] = assay: EC20 Pigmentation decrease; higher = less potent; details: exposure time: 2 dpf
Protocol: as §1

Danio rerio embryo [45] = assay: EC10 Head trunk angle_Decrease; higher = less potent; details: exposure time: 2 dpf
Protocol: as §1

Danio rerio embryo [46] = assay: EC20 Head trunk angle_Decrease; higher = less potent; details: exposure time: 2 dpf
Protocol: as §1

## CC1(C)O[C@@H]2[C@@H](CO[C@@]3(COS(N)(=O)=O)OC(C)(C)O[C@@H]23)O1 [Topiramate]
Danio rerio embryo [1]
  EC50 Lack of SB: 69.7 µM
Danio rerio embryo [2]; exposure time: 2 dpf
  EC50 Any effect: 321 µM
Danio rerio embryo [2]; exposure time: 4 dpf
  EC50 Any effect: 94.9 µM
Danio rerio embryo [3]
  EC50 LMR dark: 461 µM
Danio rerio embryo [4]
  EC50 Heart rate: 87.8 µM
Danio rerio embryo [5]; exposure time: 4 dpf
  EC50 Eye size Decrease: 242 µM
Danio rerio embryo [6]; exposure time: 2 dpf
  EC50 Curvature Increase: 1250 µM
Danio rerio embryo [6]; exposure time: 4 dpf
  EC50 Curvature Increase: 927 µM
Danio rerio embryo [7]; exposure time: 4 dpf
  EC50 Body length Decrease: 142 µM
Danio rerio embryo [8]
  EC50 Bladder size Decrease: 49.5 µM
Danio rerio embryo [9]; exposure time: 2 dpf
  EC50 Pericard size Increase: 208 µM
Danio rerio embryo [9]; exposure time: 4 dpf
  EC50 Pericard size Increase: 563 µM
Danio rerio embryo [10]; exposure time: 2 dpf
  EC50 Yolk sac size Increase: 990 µM
Danio rerio embryo [10]; exposure time: 4 dpf
  EC50 Yolk sac size Increase: 303 µM
Danio rerio embryo [11]
  EC50 Eye-jaw distance Decrease: 236 µM
Danio rerio embryo [12]
  EC50 Otolith-eye distance Decrease: 80.9 µM
Danio rerio embryo [13]
  EC10 LMR dark: 273 µM
Danio rerio embryo [14]
  EC20 LMR dark: 331 µM
Danio rerio embryo [15]
  EC10 Heart rate: 13.3 µM
Danio rerio embryo [16]
  EC10 Lack of SB: 29.7 µM
Danio rerio embryo [17]
  EC20 Lack of SB: 40.7 µM
Danio rerio embryo [18]; exposure time: 2 dpf
  EC20 Any effect: 59.1 µM
Danio rerio embryo [18]; exposure time: 4 dpf
  EC20 Any effect: 38.7 µM
Danio rerio embryo [19]; exposure time: 2 dpf
  EC10 Any effect: 22 µM
Danio rerio embryo [19]; exposure time: 4 dpf
  EC10 Any effect: 22.9 µM
Danio rerio embryo [20]
  EC20 Heart rate: 28.3 µM
Danio rerio embryo [21]; exposure time: 4 dpf
  EC20 Eye size Decrease: 97.9 µM
Danio rerio embryo [22]; exposure time: 4 dpf
  EC10 Eye size Decrease: 57.7 µM
Danio rerio embryo [23]; exposure time: 2 dpf
  EC10 Curvature Increase: 986 µM
Danio rerio embryo [23]; exposure time: 4 dpf
  EC10 Curvature Increase: 455 µM
Danio rerio embryo [24]; exposure time: 2 dpf
  EC20 Curvature Increase: 1080 µM
Danio rerio embryo [24]; exposure time: 4 dpf
  EC20 Curvature Increase: 591 µM
Danio rerio embryo [25]; exposure time: 4 dpf
  EC20 Body length Decrease: 46.4 µM
Danio rerio embryo [26]; exposure time: 4 dpf
  EC10 Body length Decrease: 24.1 µM
Danio rerio embryo [27]
  EC10 Bladder size Decrease: 28.2 µM
Danio rerio embryo [28]
  EC20 Bladder size Decrease: 34.7 µM
Danio rerio embryo [29]; exposure time: 2 dpf
  EC20 Yolk sac size Increase: 722 µM
Danio rerio embryo [29]; exposure time: 4 dpf
  EC20 Yolk sac size Increase: 149 µM
Danio rerio embryo [30]; exposure time: 2 dpf
  EC20 Pericard size Increase: 33 µM
Danio rerio embryo [30]; exposure time: 4 dpf
  EC20 Pericard size Increase: 302 µM
Danio rerio embryo [31]; exposure time: 2 dpf
  EC10 Yolk sac size Increase: 601 µM
Danio rerio embryo [31]; exposure time: 4 dpf
  EC10 Yolk sac size Increase: 98.8 µM
Danio rerio embryo [32]; exposure time: 2 dpf
  EC10 Pericard size Increase: 11.2 µM
Danio rerio embryo [32]; exposure time: 4 dpf
  EC10 Pericard size Increase: 210 µM
Danio rerio embryo [33]
  EC20 Eye-jaw distance Decrease: 165 µM
Danio rerio embryo [34]
  EC10 Eye-jaw distance Decrease: 133 µM
Danio rerio embryo [35]
  EC20 Otolith-eye distance Decrease: 37.9 µM
Danio rerio embryo [36]
  EC10 Otolith-eye distance Decrease: 24.4 µM
Danio rerio embryo [37]; 49.6 µM
  spontaneous tail coiling frequency: 0.85
Danio rerio embryo [37]; 81.8 µM
  spontaneous tail coiling frequency: 1.99 ± 1.7
Danio rerio embryo [37]; 135 µM
  spontaneous tail coiling frequency: 2.03 ± 1.4
Danio rerio embryo [37]; 222.7 µM
  spontaneous tail coiling frequency: 0.24
Danio rerio embryo [37]; 367.5 µM
  spontaneous tail coiling frequency: 1.31 ± 0.99
Danio rerio embryo [37]; 606.3 µM
  spontaneous tail coiling frequency: 2.44 ± 2
Danio rerio embryo [37]; 1000 µM
  spontaneous tail coiling frequency: 1.46
Danio rerio embryo [37]; 1000.4 µM
  spontaneous tail coiling frequency: 2.49
Danio rerio embryo [37]; 1473.4 µM
  spontaneous tail coiling frequency: 2.59

## COC(=O)Nc1nc2ccccc2[nH]1 [Carbendazim]
Danio rerio embryo [1]
  EC50 Lack of SB: 2.7 µM
Danio rerio embryo [38]
  EC50 Pigmentation decrease: 3.34 µM
Danio rerio embryo [2]; exposure time: 2 dpf
  EC50 Any effect: 3.05 µM
Danio rerio embryo [2]; exposure time: 4 dpf
  EC50 Any effect: 3.09 µM
Danio rerio embryo [5]; exposure time: 2 dpf
  EC50 Eye size Decrease: 3.3 µM
Danio rerio embryo [6]; exposure time: 2 dpf
  EC50 Curvature Increase: 3.27 µM
Danio rerio embryo [6]; exposure time: 4 dpf
  EC50 Curvature Increase: 3.26 µM
Danio rerio embryo [39]
  EC50 Head size Decrease: 3.51 µM
Danio rerio embryo [7]; exposure time: 2 dpf
  EC50 Body length Decrease: 3.04 µM
Danio rerio embryo [8]
  EC50 Bladder size Decrease: 2.25 µM
Danio rerio embryo [9]; exposure time: 2 dpf
  EC50 Pericard size Increase: 3.43 µM
Danio rerio embryo [9]; exposure time: 4 dpf
  EC50 Pericard size Increase: 2.99 µM
Danio rerio embryo [40]
  EC50 Head trunk angle Decrease: 3.47 µM
Danio rerio embryo [16]
  EC10 Lack of SB: 2.3 µM
Danio rerio embryo [17]
  EC20 Lack of SB: 2.44 µM
Danio rerio embryo [18]; exposure time: 2 dpf
  EC20 Any effect: 2.98 µM
Danio rerio embryo [18]; exposure time: 4 dpf
  EC20 Any effect: 2.85 µM
Danio rerio embryo [19]; exposure time: 2 dpf
  EC10 Any effect: 2.93 µM
Danio rerio embryo [19]; exposure time: 4 dpf
  EC10 Any effect: 2.72 µM
Danio rerio embryo [21]; exposure time: 2 dpf
  EC20 Eye size Decrease: 2.9 µM
Danio rerio embryo [22]; exposure time: 2 dpf
  EC10 Eye size Decrease: 2.69 µM
Danio rerio embryo [23]; exposure time: 2 dpf
  EC10 Curvature Increase: 2.71 µM
Danio rerio embryo [23]; exposure time: 4 dpf
  EC10 Curvature Increase: 2.68 µM
Danio rerio embryo [41]
  EC20 Head size Decrease: 3.05 µM
Danio rerio embryo [24]; exposure time: 2 dpf
  EC20 Curvature Increase: 2.9 µM
Danio rerio embryo [24]; exposure time: 4 dpf
  EC20 Curvature Increase: 2.88 µM
Danio rerio embryo [42]
  EC10 Head size Decrease: 2.81 µM
Danio rerio embryo [25]; exposure time: 2 dpf
  EC20 Body length Decrease: 2.95 µM
Danio rerio embryo [26]; exposure time: 2 dpf
  EC10 Body length Decrease: 2.9 µM
Danio rerio embryo [43]
  EC10 Pigmentation decrease: 2.53 µM
Danio rerio embryo [27]
  EC10 Bladder size Decrease: 0.977 µM
Danio rerio embryo [44]
  EC20 Pigmentation decrease: 2.8 µM
Danio rerio embryo [28]
  EC20 Bladder size Decrease: 1.33 µM
Danio rerio embryo [30]; exposure time: 2 dpf
  EC20 Pericard size Increase: 3.11 µM
Danio rerio embryo [30]; exposure time: 4 dpf
  EC20 Pericard size Increase: 2.76 µM
Danio rerio embryo [32]; exposure time: 2 dpf
  EC10 Pericard size Increase: 2.94 µM
Danio rerio embryo [32]; exposure time: 4 dpf
  EC10 Pericard size Increase: 2.63 µM
Danio rerio embryo [45]
  EC10 Head trunk angle Decrease: 2.73 µM
Danio rerio embryo [46]
  EC20 Head trunk angle Decrease: 2.98 µM
Danio rerio embryo [37]; 0.23 µM
  spontaneous tail coiling frequency: 2.14
Danio rerio embryo [37]; 0.344 µM
  spontaneous tail coiling frequency: 1.91
Danio rerio embryo [37]; 0.517 µM
  spontaneous tail coiling frequency: 2.25
Danio rerio embryo [37]; 0.775 µM
  spontaneous tail coiling frequency: 2.51 ± 0.64
Danio rerio embryo [37]; 1.16 µM
  spontaneous tail coiling frequency: 1.06
Danio rerio embryo [37]; 1.162 µM
  spontaneous tail coiling frequency: 2.68
Danio rerio embryo [37]; 1.74 µM
  spontaneous tail coiling frequency: 1.81
Danio rerio embryo [37]; 1.743 µM
  spontaneous tail coiling frequency: 1.56
Danio rerio embryo [37]; 2.615 µM
  spontaneous tail coiling frequency: 2.98
Danio rerio embryo [37]; 2.62 µM
  spontaneous tail coiling frequency: 2.11
Danio rerio embryo [37]; 3.138 µM
  spontaneous tail coiling frequency: 4.11
Danio rerio embryo [37]; 3.661 µM
  spontaneous tail coiling frequency: 3.75
